Reference: article PMC13441969, “Zero-shot design of drug-binding proteins via neural iterative selection−expansion” (Nature, 2026)
“Also recorded” adds a separate entry of the source. Structures can show the parent of a compound that is named as a salt.

Legend:
EPIC = assay: Fluorescence anisotropy of fluorescent ligands binding to EPIC; settings: for Kd / binding of ligand to EPIC (words): [ligand] = 50 nM; for Kd: 1:1 binding model; for binding of ligand to EPIC (words): dexamethasone and apixaban as FITC conjugates
Protocol: including the ProteinMPNN-designed sequences along with the Ala/Gly versions, are available […]
Fluorescence Polarization Experiments to Determine Binding Affinities
We performed fluorescence anisotropy experiments in a 384 -well plate -reader format to determine the binding affinities of protein s with various ligands (Supp. Fig. 15 and Supp. Table 6). We serially diluted an initial solution containing a high concentration of protein while keeping a constant concentration of ligand (50 nM) in each well. The buffer for these assays was composed of 1x PBS, pH 7.4, and 0.1% w/v PEG-8000. Camptothecin-class molecules (exatecan, camptothecin, belotecan, FL118, irinotecan) were excited at a wavelength of 360 nm using a BMG LabTech PHERAstar FSX plate reader or a BMG LabTech CLARIOstar Plus plate reader. We detected the resulting parallel and perpendicularly polarized emission at 440 nm. […]
excited using 482 nm filter (16 nm bandwidth) using a BMG LabTech CLARIOstar Plus plate reader, and parallel and perpendicularly polarized emissions were detected through a 530 nm filter (40 nm bandwidth). Data was fit using the quadratic form of a single-site binding model.
Gain settings for each molecule were calculated by auto-adjusting the focus on a well containing free ligand and buffer, setting the millipolarization (mP) of free ligand to mP = 35.
Fits to Fluorescence Anisotropy Data
Data from fluorescence anisotropy (r) experiments, which varied total protein concentration, [P]T for a fixed total ligand concentration, [L]T, was fit to a single-site binding […]
model (Equations 1 and 2, N = 1). […] For
EPIC and its mutants, confidence intervals of the fit parameters were determined from bootstrapping the residuals of the optimum fit (random residual selection with replacement) to create 1000 synthetic datasets, which were each separately fit to Equations 1 and 2. Parameter means and 95% confidence intervals were determined from the distribution of the parameters computed from the bootstrapped fits.
We performed separate protein titrations across three fixed exatecan concentration s (25 , 12.5 , and 5 nM) and measured fluorescence anisotropy of exatecan as a function of protein concentration . For each EPIC mutant, the dissociation constant (Kd) and anisotropy baseline (A min) were shared parameters across the three exatecan concentrations. Anisotropy maxima (Amax) and ligand concentration ([L]T) were fit locally. We fit the ligand concentrations locally (to within 15% of the target concentration) to account for experimental discrepancies. Code for performing the fitting is provided in Zenodo16. […]

[1] = Exatecan lactone hydrolysis by time-resolved absorbance; format: physicochemical; settings: room temperature, pH 7.4; 3 half-lives
[2] = design: method as in PMID 35318309, PMID 31620223; settings: read-out: cellular half-maximum inhibitory concentration (IC50); cited from earlier work
[3] = design: method as in PMID 11595695; settings: cited from earlier work

Structure (SMILES) | Kd (EPIC) [µM] | ΔΔG (change in binding free energy) relative to the exatecan–EPIC complex (EPIC) [kcal/mol] | binding of ligand to EPIC (words) (EPIC) | further results
CC[C@@]1(O)C(=O)OCc2c1cc1n(c2=O)Cc2c-1nc1cc(F)c(C)c3c1c2[C@@H](N)CC3 [exatecan, Exatecan mesylate] | 0.12 | – | – | fold tighter binding of EPIC to exatecan than to any other ligand tested (EPIC): at least 50 fold; time for nearly complete conversion from C to O form [1]: ≤ 6 h; IC50 [2]: ~0.001 µM; half-life of hydrolysis of free drug in plasma ([3]; plasma): around 2 h; steady-state level of lactone form in human plasma ([3]; within 10 h): 15%
CC[C@@]1(O)C(=O)OCc2c1cc1n(c2=O)Cc2cc3ccccc3nc2-1 [camptothecin, Camptothecin] | 90 | 3.9 | – | –
CCc1c2c(nc3ccc(OC(=O)N4CCC(N5CCCCC5)CC4)cc13)-c1cc3c(c(=O)n1C2)COC(=O)[C@]3(O)CC [irinotecan] | – | – | not to bind; also recorded: no appreciable binding | binding of ligand to EPIC (words) (EPIC; listed as Irinotecan): negligible binding
C[C@@H]1C[C@H]2[C@@H]3CCC4=CC(=O)C=C[C@]4(C)[C@@]3(F)[C@@H](O)C[C@]2(C)[C@@]1(O)C(=O)CO [dexamethasone] | – | – | no binding; also recorded: does not bind | binding of ligand to EPIC (words) (EPIC; listed as Dexamethasone): no appreciable binding
CC[C@@]1(O)C(=O)OCc2c1cc1n(c2=O)Cc2c-1nc1ccccc1c2CCNC(C)C [belotecan, Belotecan hydrochloride] | 19 | 3.0 | – | –
CC[C@@]1(O)C(=O)OCc2c1cc1n(c2=O)Cc2cc3cc4c(cc3nc2-1)OCO4 [FL118] | 6 | 2.3 | – | –
COc1ccc(-n2nc(C(N)=O)c3c2C(=O)N(c2ccc(N4CCCCC4=O)cc2)CC3)cc1 [apixaban, Apixaban] | – | – | no appreciable binding; also recorded: does not bind | –
COc1ccc(-n2nc(C(=O)NCCOCCOCCNC(=S)Nc3ccc(-c4c5ccc(=O)cc-5oc5cc(O)ccc45)c(C(=O)O)c3)c3c2C(=O)N(c2ccc(N4CCCCC4=O)cc2)CC3)cc1 [apixaban-peg-FITC] | – | – | did not show any experimentally detectable binding | –
